Measured values published in PubChem BioAssay (NCI).
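Cells were grown in 96-well plates and exposed to each compound for 48 hours at five concentrations; endpoints were interpolated linearly between bracketing concentrations, or set to the highest concentration if not reached. GI50 = concentration required for 50% inhibition of growth. TGI denotes the concentration required for complete inhibition of growth.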

Columns and labels:
Test in all cases: NCI anticancer screen, dose series, 48 h
HS 578T breast = system: HS 578T breast
HOP-92 NSCLC = system: HOP-92 NSCLC
IGROV1 ovarian = system: IGROV1 ovarian
HCT-15 colon = system: HCT-15 colon
MALME-3M melanoma = system: MALME-3M melanoma
786-0 renal = system: 786-0 renal
K-562 leukemia = system: K-562 leukemia
COLO 205 colon = system: COLO 205 colon
HCC-2998 colon = system: HCC-2998 colon
SF-295 CNS = system: SF-295 CNS
RPMI-8226 leukemia = system: RPMI-8226 leukemia
SK-MEL-5 melanoma = system: SK-MEL-5 melanoma
NCI-H460 lung = system: NCI-H460 lung
ACHN renal = system: ACHN renal
SN12C renal = system: SN12C renal
U251 CNS = system: U251 CNS
RXF 393 renal = system: RXF 393 renal
DU-145 prostate = system: DU-145 prostate
UACC-62 melanoma = system: UACC-62 melanoma
MDA-MB-231 breast = system: MDA-MB-231 breast
PC-3 prostate = system: PC-3 prostate
HT29 colon = system: HT29 colon
NCI-H522 lung = system: NCI-H522 lung
SK-OV-3 ovarian = system: SK-OV-3 ovarian
SR leukemia = system: SR leukemia
CCRF-CEM leukemia = system: CCRF-CEM leukemia
CAKI-1 renal = system: CAKI-1 renal
NCI-H226 lung = system: NCI-H226 lung
BT-549 breast = system: BT-549 breast
HCT-116 colon = system: HCT-116 colon
OVCAR-8 ovarian = system: OVCAR-8 ovarian
SNB-75 CNS = system: SNB-75 CNS
SF-539 CNS = system: SF-539 CNS
TK-10 renal = system: TK-10 renal
MCF7 breast = system: MCF7 breast
SW-620 colon = system: SW-620 colon
KM12 colon = system: KM12 colon
OVCAR-3 ovarian = system: OVCAR-3 ovarian
OVCAR-5 ovarian = system: OVCAR-5 ovarian
HOP-62 NSCLC = system: HOP-62 NSCLC
SF-268 CNS = system: SF-268 CNS
MDA-MB-435 = system: MDA-MB-435
NCI-H23 lung = system: NCI-H23 lung
UACC-257 melanoma = system: UACC-257 melanoma
HL-60(TB) leukemia = system: HL-60(TB) leukemia
NCI/ADR-RES ovarian = system: NCI/ADR-RES ovarian
LOX IMVI melanoma = system: LOX IMVI melanoma
OVCAR-4 ovarian = system: OVCAR-4 ovarian
A498 renal = system: A498 renal
MOLT-4 leukemia = system: MOLT-4 leukemia
T-47D breast = system: T-47D breast
UO-31 renal = system: UO-31 renal
EKVX NSCLC = system: EKVX NSCLC
A549 NSCLC = system: A549 NSCLC
SK-MEL-2 melanoma = system: SK-MEL-2 melanoma
SNB-19 CNS = system: SNB-19 CNS
SK-MEL-28 melanoma = system: SK-MEL-28 melanoma

C[C@]12CC[C@H](O)C[C@@H]1CC[C@@H]1[C@@H]2CC[C@@]2(C)[C@H]1CC[C@@H]2[C@](C)(O)CCc1ccc(F)cc1
GI50 (HS 578T breast): 7.71 µM | TGI (HS 578T breast): 37.9 µM | GI50 (HOP-92 NSCLC): 4.22 µM | TGI (HOP-92 NSCLC): 22.5 µM | GI50 (IGROV1 ovarian): 6.04 µM | TGI (IGROV1 ovarian): 20.7 µM | GI50 (HCT-15 colon): 3.82 µM | TGI (HCT-15 colon): 18.3 µM | GI50 (MALME-3M melanoma): 17.9 µM | TGI (MALME-3M melanoma): 41.8 µM | GI50 (786-0 renal): 6.14 µM | TGI (786-0 renal): 21 µM | GI50 (K-562 leukemia): 1.88 µM | TGI (K-562 leukemia): > 100 µM | GI50 (COLO 205 colon): 8.81 µM | TGI (COLO 205 colon): 42.4 µM | GI50 (HCC-2998 colon): 9.79 µM | TGI (HCC-2998 colon): 23.8 µM | GI50 (SF-295 CNS): 2.43 µM | TGI (SF-295 CNS): 10.9 µM | GI50 (RPMI-8226 leukemia): 2.4 µM | TGI (RPMI-8226 leukemia): 43.9 µM | GI50 (SK-MEL-5 melanoma): 1.32 µM | TGI (SK-MEL-5 melanoma): 6.81 µM | GI50 (NCI-H460 lung): 3.38 µM | TGI (NCI-H460 lung): 14 µM | GI50 (ACHN renal): 5.81 µM | TGI (ACHN renal): 18.9 µM | GI50 (SN12C renal): 3.79 µM | TGI (SN12C renal): 15.7 µM | GI50 (U251 CNS): 10.9 µM | TGI (U251 CNS): 31 µM | GI50 (RXF 393 renal): 2.46 µM | TGI (RXF 393 renal): 10.8 µM | GI50 (DU-145 prostate): 7.14 µM | TGI (DU-145 prostate): 23.7 µM | GI50 (UACC-62 melanoma): 10.6 µM | TGI (UACC-62 melanoma): 26.7 µM | GI50 (MDA-MB-231 breast): 5.33 µM | TGI (MDA-MB-231 breast): 20.5 µM | GI50 (PC-3 prostate): 5.02 µM | TGI (PC-3 prostate): 30.7 µM | GI50 (HT29 colon): 6.42 µM | TGI (HT29 colon): 36.7 µM | GI50 (NCI-H522 lung): 4.45 µM | TGI (NCI-H522 lung): 49.4 µM | GI50 (SK-OV-3 ovarian): 16.1 µM | TGI (SK-OV-3 ovarian): 76.2 µM | GI50 (SR leukemia): 2.11 µM | TGI (SR leukemia): 22.3 µM | GI50 (CCRF-CEM leukemia): 4.56 µM | TGI (CCRF-CEM leukemia): 59.7 µM | GI50 (CAKI-1 renal): 5.43 µM | TGI (CAKI-1 renal): 20.1 µM | GI50 (NCI-H226 lung): 5.97 µM | TGI (NCI-H226 lung): 24.8 µM | GI50 (BT-549 breast): 3.85 µM | TGI (BT-549 breast): 17.5 µM | GI50 (HCT-116 colon): 3.65 µM | TGI (HCT-116 colon): 16.4 µM | GI50 (OVCAR-8 ovarian): 8.35 µM | TGI (OVCAR-8 ovarian): 62.7 µM | GI50 (SNB-75 CNS): 4.07 µM | TGI (SNB-75 CNS): 26.9 µM | GI50 (SF-539 CNS): 6.94 µM | TGI (SF-539 CNS): 20.8 µM | GI50 (TK-10 renal): 16.7 µM | TGI (TK-10 renal): 56.4 µM | GI50 (MCF7 breast): 2.55 µM | TGI (MCF7 breast): 15 µM | GI50 (SW-620 colon): 7.13 µM | TGI (SW-620 colon): 24.1 µM | GI50 (KM12 colon): 4.22 µM | TGI (KM12 colon): 19.4 µM | GI50 (OVCAR-3 ovarian): 4.72 µM | TGI (OVCAR-3 ovarian): 16.7 µM | GI50 (OVCAR-5 ovarian): 5.64 µM | TGI (OVCAR-5 ovarian): 19.6 µM | GI50 (HOP-62 NSCLC): 13.1 µM | TGI (HOP-62 NSCLC): 43.9 µM | GI50 (SF-268 CNS): 8.46 µM | TGI (SF-268 CNS): 25.4 µM | GI50 (MDA-MB-435): 7.84 µM | TGI (MDA-MB-435): 25 µM | GI50 (NCI-H23 lung): 3.78 µM | TGI (NCI-H23 lung): 18.4 µM | GI50 (UACC-257 melanoma): 4.53 µM | TGI (UACC-257 melanoma): 35.5 µM | GI50 (HL-60(TB) leukemia): 3.87 µM | TGI (HL-60(TB) leukemia): 24 µM | GI50 (NCI/ADR-RES ovarian): 2.87 µM | TGI (NCI/ADR-RES ovarian): 13.9 µM | GI50 (LOX IMVI melanoma): 3.41 µM | TGI (LOX IMVI melanoma): 15.1 µM | GI50 (OVCAR-4 ovarian): 1.77 µM | TGI (OVCAR-4 ovarian): 18.4 µM | GI50 (A498 renal): 2.4 µM | TGI (A498 renal): 15.6 µM | GI50 (MOLT-4 leukemia): 3.21 µM | TGI (MOLT-4 leukemia): 24.6 µM | GI50 (T-47D breast): 1.95 µM | TGI (T-47D breast): 45.1 µM | GI50 (UO-31 renal): 4.43 µM | TGI (UO-31 renal): 31.4 µM | GI50 (EKVX NSCLC): 2.27 µM | TGI (EKVX NSCLC): 18.1 µM | GI50 (A549 NSCLC): 5.04 µM | TGI (A549 NSCLC): 39.2 µM | GI50 (SK-MEL-2 melanoma): 11.4 µM | TGI (SK-MEL-2 melanoma): 51.9 µM | GI50 (SNB-19 CNS): 10.5 µM | TGI (SNB-19 CNS): 25.1 µM | GI50 (SK-MEL-28 melanoma): 12.3 µM | TGI (SK-MEL-28 melanoma): 26.4 µM
